Test results published in patent US8895004B2 (priority 2007, dated 2014).
“Also recorded” adds a separate entry of the source.

Key:
[1] = tested on: cultured hippocampal neurons treated with ω-conotoxin (P/Q-dominated cells); type: cell-based, rat
N-type currents = N-type currents (Rattus norvegicus, UniProt Q02294); type: cell-based

| Compound | amplitude of spontaneous synaptic currents [1] | reversal of Aβ globulomer-induced reduction of frequency of spontaneous synaptic events [1] | N-type calcium current amplitude (N-type currents) [pA] | amplitude of synaptic events (mIPSCs) [1] | effect on amplitude of mIPSCs when P/Q channels are already blocked [1] | effect on synaptic activity / frequency of mIPSCs after blockade of P/Q channels by ω-agatoxin [1] | frequency of spontaneous synaptic events [1] |
| --- | --- | --- | --- | --- | --- | --- | --- |
| CC[C@H](CO)Nc1nc(NCc2ccccc2)c2ncn(C(C)C)c2n1 [roscovitine] | No effect | reversal | – | – | – | – | – |
| Aβ(1-42) globulomer: soluble, globular, non-covalent association of Aβ(1-42) peptides, apparent molecular weight 38/48 kDa, obtained as in Example 6b of WO2004/067561 | – | – | 1399.8±376.4 | no or little effect; also recorded: no effect | No effect | No additive effect; also recorded: no further effect | inhibits the frequency of spontaneous synaptic events |
